Reference: PubChem BioAssay (NCI)
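Briefly, cells in 96-well plates were exposed to five compound concentrations for 48 h, and endpoints were estimated by linear interpolation. TGI: concentration producing complete growth inhibition.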

Key:
Assay in all cases: growth of human tumour cells (NCI), 48 h
[1] = tested on: SF-268 CNS
[2] = tested on: U251 CNS
[3] = tested on: MOLT-4 leukemia
[4] = tested on: HCT-15 colon
[5] = tested on: CAKI-1 renal
[6] = tested on: DU-145 prostate
[7] = tested on: MDA-N
[8] = tested on: NCI-H522 lung
[9] = tested on: ACHN renal
[10] = tested on: MCF7 breast
[11] = tested on: SK-OV-3 ovarian

SMILES | TGI [1] | TGI [2] | TGI [3] | TGI [4] | TGI [5] | TGI [6] | TGI [7] | TGI [8] | TGI [9] | TGI [10] | TGI [11]
C[C@@H]1CCC2[C@@H](C)C(=O)O[C@@H]3C4C[C@@H]1[C@@]23OO[C@@]4(C)O (stereo partly drawn) | > 100 µM | > 100 µM | > 100 µM | > 100 µM | > 100 µM | > 100 µM | > 100 µM | > 100 µM | > 100 µM | > 100 µM | 
CC1OC(=O)c2ccccc2NC1=O (stereo not drawn) | > 100 µM | > 100 µM | > 100 µM | > 100 µM | > 100 µM | > 100 µM |  | > 100 µM | > 100 µM |  | > 100 µM
CCN(CC)CCNc1ccc(C)c2sc3ccc(O)cc3c(=O)c12 | 7.93 µM | 2.44 µM | 1.16 µM | 2.72 µM | 21.8 µM |  |  | 2.7 µM | 1.63 µM |  | 5.59 µM
Nc1ncc(Cc2nc3ccccc3s2)s1 | > 100 µM | > 100 µM | > 100 µM | > 100 µM | > 100 µM | > 100 µM |  | > 100 µM | > 100 µM | > 100 µM | > 100 µM
Cc1ccc(S(=O)(=O)N/N=C2\C=C[C@]3(CC2)C(=O)N(C)c2ccccc23)cc1 | > 100 µM | > 100 µM | > 100 µM | > 100 µM | > 100 µM | > 100 µM | > 100 µM |  | > 100 µM | > 100 µM | > 100 µM
CC(C)(C)C=C=C(C(C)(C)C)P(=O)(O)O | > 100 µM | > 100 µM |  | > 100 µM | > 100 µM | > 100 µM | > 100 µM | > 100 µM | > 100 µM |  | > 100 µM
COC(=O)C1=C(O)C(C(=O)OC)[C@]2(O)[C@H](C(=O)OC)[C@H]1C[C@@H](c1ccc(OC)cc1)[C@H]2C(=O)OC (stereo partly drawn) | > 100 µM | 65.6 µM | 68.1 µM | > 100 µM | 62.1 µM |  | 40.7 µM | 17.7 µM | 37.6 µM | > 100 µM | 65.5 µM
COc1ccc(C)cc1NC(=S)N/N=C/c1ccc(SC)cc1 | > 100 µM |  | > 100 µM | > 100 µM | > 100 µM | > 100 µM | > 100 µM | > 100 µM | > 100 µM | > 100 µM | 91.4 µM
COc1nc(=O)n(C2CC(N=[N+]=[N-])C(CO)O2)cc1C (stereo not drawn) | > 100 µM | > 100 µM | > 100 µM | > 100 µM |  | > 100 µM | > 100 µM | > 100 µM | > 100 µM | > 100 µM | 
NC(CCCCNc1ccn(C2OC(CO)C(O)C2O)c(=O)n1)C(=O)O (stereo not drawn) | > 100 µM | > 100 µM | > 100 µM | > 100 µM | > 100 µM | > 100 µM | > 100 µM | > 100 µM | > 100 µM | > 100 µM | 
COc1cc(CC2c3cc(OC)c(OC)cc3CCN2C)c(Oc2cc3c(cc2OC)-c2c(OC)c(OC)c(OC)c4c2C(C3)N(C)CC4)cc1OC (stereo not drawn) | 32.8 µM | 26 µM | > 42.5 µM | 23.4 µM | 32.1 µM |  |  | 24.5 µM | 30.9 µM |  | 35 µM
